From patent publication US9168259B2 (GRÜNENTHAL GMBH, priority 2010, dated 2015)
pEC50: −log10 of the molar value. Where two headings read alike, the source gives them in different places. Values belong to the compound of their own block, whether it stands above or below them.

Target: T1, KCNQ2/3 channels (Homo sapiens, UniProt O43525+O43526)
T1 construct: expressed in transfected cells
Test: Fluorescence assay using a voltage sensitive dye (fluorimetry)
Assay type: cell-based
Conditions: for pEC50: IC50 where % efficacy is negative, read-out: Fluorimetry EC50/IC50
Excerpt: Method I. Fluorescence Assay Using a Voltage Sensitive Dye (Fluorimetry)
These voltage-sensitive dyes are fluorescent dyes and, therefore, are forming the link between cell potential influenced by KCNQ modulation and fluorescence intensity. A KCNQ agonist leads to an opening of the channel, potassium and dye efflux, a following hyperpolarization and a reduction of the inner fluorescence intensity in a kinetic protocol. If applying an ion jump by KCl depolarization, KCNQ agonists increase the ΔF/F value. An antagonist performs vice versa, respectively.
Therefore, ‘fluorimetry EC50’ is a measure for the compound potency. The compound efficacy is mirrored by ‘fluorimetry % efficacy’ (‘% Efficacy’) and refers to the maximum response achievable by the test compound, i.e. the plateau effect. This drug's plateau effect is related to the plateau effect, which can be achieved by applying a saturated concentration of a reference compound, e.g. Retigabine (50 μM), in independent wells of the same experimental plate or series.
[…] CHO-K1 cells expressing KCNQ2/3 channels are cultivated adherently at 37° C., 5% CO2 and 95% humidity in cell culture bottles (e.g. 80 cm^2 TC flasks, Nunc) with DMEM-high glucose (Sigma Aldrich, D7777) including 10% FCS (PAN Biotech, e.g. 3302-P270521) or alternatively MEM Alpha Medium (1×, liquid, Invitrogen, #22571), 10% fetal calf serum (FCS) (Invitrogen, #10270-106, heat-inactivated) and the necessary selection antibiotics.
The cell number is determined using a CASY™ cell counter (TCC, Schärfe System). Depending on the optimal density for each individual cell line, 20,000-30,000 cells/well/100 μl are seeded onto 96-well Corning™ CellBIND™ assay plates (Flat Clear Bottom Black Polystyrene Microplates, #3340). Freshly seeded cells are then left to settle for one hour at room temperature, followed by incubation for 24 hours at 37° C., 5% CO2 and 95% humidity.
The voltage-sensitive fluorescent dye from the Membrane Potential Assay Kit (Red™ Bulk format part R8123 for FLIPR, MDS Analytical Technologies™) is prepared by dissolving the contents of one vessel Membrane Potential Assay Kit Red Component A in 200 ml of extracellular buffer (ES buffer, 120 mM NaCl, 1 mM KCl, 10 mM HEPES, 2 mM CaCl2, 2 mM MgCl2, 10 mM glucose; pH 7.4). After removal of the nutrient medium, the cells are washed once with 200 μl of ES buffer, then loaded for 45 min at room temperature in 100 μl of dye solution in the dark.
Fluorescence measurements are carried out in a BMG Labtech FLUOstar™, BMG Labtech NOVOstar™ or BMG Labtech POLARstar™ instrument (525 nm excitation, 560 nm emission, Bottom Read mode). After incubation with the dye, 50 μl of the test substances in the desired concentrations, or 50 μl of ES buffer for control purposes, are applied to the wells of the assay plate and incubated for 30 min at room temperature while being shielded from light. The fluorescence intensity of the dye is then measured for 5 min and the fluorescence value F1 of each well is thus determined at a given, constant time. 15 μl of a KCl solution are then added to each well (final concentration of potassium ions 92 mM). The change in fluorescence intensity is subsequently monitored until all the relevant values have been obtained (mainly 5-30 min). At a given time post KCl application, a fluorescence value F2 is determined, in this case at the time of the fluorescence peak.
For calculation, the fluorescence intensity F2 is corrected for the fluorescence intensity F1, and the activity (ΔF/F) of the target compound on the potassium channel is determined as follows:
In order to determine whether a substance has agonistic activity,
[formula] can be related to
[formula] of control wells.
[formula] is determined by adding to the well only the buffer solution instead of the test substance, determining the value F1K of the fluorescence intensity, adding the potassium ions as described above, and measuring a value F2K of the fluorescence intensity.

[1] = CHO-K1, plateau effect relative to saturated retigabine (50 μM) = 100%, CHO-K1 cells expressing KCNQ2/3, negative values = antagonistic, read-out: Fluorimetry % efficacy (retigabine = 100%)
[2] = CHO-K1 cells expressing KCNQ2/3

T1 sequence (O43526 whole entry): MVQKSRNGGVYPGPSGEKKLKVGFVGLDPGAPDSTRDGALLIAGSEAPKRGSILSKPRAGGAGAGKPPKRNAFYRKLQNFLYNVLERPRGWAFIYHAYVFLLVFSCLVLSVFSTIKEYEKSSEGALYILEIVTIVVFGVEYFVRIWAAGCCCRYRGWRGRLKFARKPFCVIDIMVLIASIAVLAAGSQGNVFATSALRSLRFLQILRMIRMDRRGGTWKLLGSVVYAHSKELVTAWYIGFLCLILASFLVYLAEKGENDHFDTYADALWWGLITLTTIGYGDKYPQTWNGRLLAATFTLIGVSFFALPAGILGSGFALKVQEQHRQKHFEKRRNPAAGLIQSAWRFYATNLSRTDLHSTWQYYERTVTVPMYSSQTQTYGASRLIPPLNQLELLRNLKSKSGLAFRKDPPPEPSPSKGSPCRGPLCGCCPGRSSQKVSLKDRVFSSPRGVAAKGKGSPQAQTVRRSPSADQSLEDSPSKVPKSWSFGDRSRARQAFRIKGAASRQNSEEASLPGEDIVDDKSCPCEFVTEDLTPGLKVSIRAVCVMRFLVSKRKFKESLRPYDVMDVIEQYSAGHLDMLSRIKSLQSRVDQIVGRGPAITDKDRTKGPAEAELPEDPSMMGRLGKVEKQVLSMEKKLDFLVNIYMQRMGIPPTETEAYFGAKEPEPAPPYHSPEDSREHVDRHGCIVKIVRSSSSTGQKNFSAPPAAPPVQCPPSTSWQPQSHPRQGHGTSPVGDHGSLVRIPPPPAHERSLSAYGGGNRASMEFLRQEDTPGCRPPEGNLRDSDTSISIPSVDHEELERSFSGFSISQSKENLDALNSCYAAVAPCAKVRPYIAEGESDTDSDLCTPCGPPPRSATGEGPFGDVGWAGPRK
T1 sequence (O43525 whole entry): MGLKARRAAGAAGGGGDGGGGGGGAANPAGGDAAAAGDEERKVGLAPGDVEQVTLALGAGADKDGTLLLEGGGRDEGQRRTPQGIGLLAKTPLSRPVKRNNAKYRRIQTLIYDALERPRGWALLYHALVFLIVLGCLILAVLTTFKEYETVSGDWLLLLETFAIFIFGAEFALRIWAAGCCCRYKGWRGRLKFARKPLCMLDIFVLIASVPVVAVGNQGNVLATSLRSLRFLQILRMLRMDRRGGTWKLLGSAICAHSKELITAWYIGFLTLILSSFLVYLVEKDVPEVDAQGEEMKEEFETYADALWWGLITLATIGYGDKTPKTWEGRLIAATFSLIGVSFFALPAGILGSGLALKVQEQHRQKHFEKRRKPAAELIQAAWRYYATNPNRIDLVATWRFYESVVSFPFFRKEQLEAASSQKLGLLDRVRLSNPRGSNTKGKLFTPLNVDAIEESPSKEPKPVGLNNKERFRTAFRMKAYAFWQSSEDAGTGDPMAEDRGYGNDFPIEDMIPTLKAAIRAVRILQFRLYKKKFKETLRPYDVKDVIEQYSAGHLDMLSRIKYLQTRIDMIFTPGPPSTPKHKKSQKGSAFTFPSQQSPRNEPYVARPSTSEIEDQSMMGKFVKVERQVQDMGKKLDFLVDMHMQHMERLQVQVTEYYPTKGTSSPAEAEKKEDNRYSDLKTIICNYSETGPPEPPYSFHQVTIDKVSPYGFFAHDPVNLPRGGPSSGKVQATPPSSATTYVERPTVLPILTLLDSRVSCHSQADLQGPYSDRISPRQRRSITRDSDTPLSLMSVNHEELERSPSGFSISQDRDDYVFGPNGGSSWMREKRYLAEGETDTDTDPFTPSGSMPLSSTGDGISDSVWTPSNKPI

- Emax [1]: 128%
- pEC50 [2]: 7.15
SMILES: CCSc1nc(N2CCOCC2)cc(C)c1C(=O)NCc1cccc(C(F)(F)F)c1 [Example 59, 2-Ethylsulfanyl-4-methyl-6-morpholin-4-yl-N-[[3-(trifluoromethyl)phenyl]methyl]-pyridine-3-carboxylic acid amide]

- Emax [1]: 110%
- pEC50 [2]: 6.28
SMILES: CCSc1nc(N(C)CC2CCOCC2)cc(C)c1C(=O)NCc1cccc(F)c1 [Example 61, 2-Ethylsulfanyl-N-[(3-fluorophenyl)-methyl]-4-methyl-6-[methyl-(tetrahydro-pyran-4-yl-methyl)-amino]-pyridine-3-carboxylic acid amide]

- Emax [1]: 164%
- pEC50 [2]: 7.33
SMILES: Cc1cc(N2CCOCC2)nc(SCC(C)C)c1C(=O)NCc1cccc(F)c1 [Example 62, N-[(3-Fluorophenyl)-methyl]-4-methyl-2-(2-methyl-propylsulfanyl)-6-morpholin-4-yl-pyridine-3-carboxylic acid amide]

- Emax [1]: 157%
- pEC50 [2]: 6.23
SMILES: COCCSc1nc(N2CCOCC2)cc(C)c1C(=O)NCc1cccc(F)c1 [Example 63, N-[(3-Fluorophenyl)-methyl]-2-(2-methoxy-ethylsulfanyl)-4-methyl-6-morpholin-4-yl-pyridine-3-carboxylic acid amide]

- Emax [1]: 238%
- pEC50 [2]: 5.98
SMILES: Cc1cc(N2CCOCC2)nc(N(C)C)c1C(=O)NCc1cccc(F)c1 [Example 65, 2-Dimethylamino-N-[(3-fluorophenyl)-methyl]-4-methyl-6-morpholin-4-yl-pyridine-3-carboxylic acid amide]

- Emax [1]: 109%
- pEC50 [2]: 6.01
SMILES: CCSc1nc(N2CC(C)OC(C)C2)cc(C)c1C(=O)NCc1cccc(F)c1 (stereo not drawn) [Example 66, 6-(2,6-Dimethyl-morpholin-4-yl)-2-ethylsulfanyl-N-[(3-fluorophenyl)-methyl]-4-methyl-pyridine-3-carboxylic acid amide]

- Emax [1]: 175%
- pEC50 [2]: 6.79
SMILES: CCSc1nc(N2CCC(C)CC2)cc(C)c1C(=O)NCc1cccc(F)c1 [Example 70, 2-Ethylsulfanyl-N-[(3-fluorophenyl)-methyl]-4-methyl-6-(4-methyl-piperidin-1-yl)-pyridine-3-carboxylic acid amide]

- Emax [1]: 67%
- pEC50 [2]: 5.52
SMILES: CCSc1nc(N2CCN(C3CC3)CC2)cc(C)c1C(=O)NCc1cccc(F)c1 [Example 73, 6-(4-Cyclopropyl-piperazin-1-yl)-2-ethylsulfanyl-N-[(3-fluorophenyl)-methyl]-4-methyl-pyridine-3-carboxylic acid amide]

- Emax [1]: 70%
- pEC50 [2]: 6.15
SMILES: CCSc1nc(N2CCC(C)(C)CC2)cc(C)c1C(=O)NCc1cccc(F)c1 [Example 74, 6-(4,4-Dimethyl-piperidin-1-yl)-2-ethylsulfanyl-N-[(3-fluorophenyl)-methyl]-4-methyl-pyridine-3-carboxylic acid amide]

More lines, now with the values behind:

SMILES: CCSc1nc(N2CCOCC2)c(F)c(C)c1C(=O)NCc1cccc(F)c1 [Example 58, 2-Ethylsulfanyl-5-fluoro-N-[(3-fluorophenyl)-methyl]-4-methyl-6-morpholin-4-yl-pyridine-3-carboxylic acid amide]
- Emax [1]: 173%
- pEC50 [2]: 5.64

SMILES: CCSc1nc(N2CCOCC2)cc(C)c1C(=O)NCc1ccc(C(F)(F)F)cc1 [Example 60, 2-Ethylsulfanyl-4-methyl-6-morpholin-4-yl-N-[[4-(trifluoromethyl)-phenyl]methyl]-pyridine-3-carboxylic acid amide]
- Emax [1]: 128%
- pEC50 [2]: 6.90

SMILES: CCOc1nc(N2CCOCC2)cc(C)c1C(=O)NCc1ccc(F)cc1 [Example 64, 2-Ethoxy-N-[(4-fluorophenyl)-methyl]-4-methyl-6-morpholin-4-yl-pyridine-3-carboxylic acid amide]
- Emax [1]: 137%
- pEC50 [2]: 6.67

SMILES: CCSc1nc(N2CCOCC2)cc(C)c1C(=O)NCCC1CCCCO1 (stereo not drawn) [Example 68, 2-Ethylsulfanyl-4-methyl-6-morpholin-4-yl-N-(2-tetrahydro-pyran-2-yl-ethyl)-pyridine-3-carboxylic acid amide]
- Emax [1]: 134%
- pEC50 [2]: 5.13

SMILES: CCSc1nc(N2CCOCC2)cc(C)c1C(=O)NCC1CCCCO1 (stereo not drawn) [Example 69, 2-Ethylsulfanyl-4-methyl-6-morpholin-4-yl-N-(tetrahydro-pyran-2-yl-methyl)-pyridine-3-carboxylic acid amide]
- Emax [1]: 160%
- pEC50 [2]: 5.35

SMILES: CCSc1nc(N2CCOCC2)cc(C)c1C(=O)NCc1ccccc1-c1ccc(F)cc1 [Example 71, 2-Ethylsulfanyl-N-[[2-(4-fluorophenyl)-phenyl]-methyl]-4-methyl-6-morpholin-4-yl-pyridine-3-carboxylic acid amide]
- Emax [1]: -102%
- pEC50 [2]: 6.56

SMILES: CCOC(=O)CN(C)c1cc(C)c(C(=O)NCc2cccc(F)c2)c(SCC)n1 [Example 72]
- Emax (CHO-K1, read-out: Fluorimetry % efficacy (retigabine = 100%)): 93%
- pEC50 [2]: 5.68

SMILES: CCSc1nc(N2CCOCC2)cc(C)c1C(=O)NCc1ccc(SC(F)(F)F)cc1 [Example 75, 2-Ethylsulfanyl-4-methyl-6-morpholin-4-yl-N-[[4-(trifluoromethylsulfanyl)-phenyl]-methyl]-pyridine-3-carboxylic acid amide]
- Emax [1]: 135%
- pEC50 [2]: 7.21

SMILES: CCSc1nc(N2CCOCC2)cc(C)c1C(=O)NCC1CCCCC1 [Example 76, N-(Cyclohexyl-methyl)-2-ethylsulfanyl-4-methyl-6-morpholin-4-yl-pyridine-3-carboxylic acid amide]
- Emax [1]: 179%
- pEC50 [2]: 7.04

SMILES: CCSc1nc(N2CCOCC2)cc(C)c1C(=O)NCCOC [Example 77, 2-Ethylsulfanyl-N-(2-methoxy-ethyl)-4-methyl-6-morpholin-4-yl-pyridine-3-carboxylic acid amide]
- Emax [1]: 40%

SMILES: CCSc1nc(N2CCOCC2)cc(C)c1C(=O)NCCCOC [Example 78, 2-Ethylsulfanyl-N-(3-methoxy-propyl)-4-methyl-6-morpholin-4-yl-pyridine-3-carboxylic acid amide]
- Emax [1]: 31%

SMILES: CCCCNC(=O)c1c(C)cc(N2CCOCC2)nc1SCC [Example 80, N-Butyl-2-ethylsulfanyl-4-methyl-6-morpholin-4-yl-pyridine-3-carboxylic acid amide]
- Emax [1]: 147%
- pEC50 [2]: 5.66

SMILES: CCCCCNC(=O)c1c(C)cc(N2CCOCC2)nc1SCC [Example 81, 2-Ethylsulfanyl-4-methyl-6-morpholin-4-yl-N-pentyl-pyridine-3-carboxylic acid amide]
- Emax [1]: 163%
- pEC50 [2]: 6.18

SMILES: CCSc1nc(N2CCOCC2)cc(C)c1C(=O)NCc1ccc(F)c(C(F)(F)F)c1 [Example 82, 2-Ethylsulfanyl-N-[[4-fluoro-3-(trifluoromethyl)-phenyl]-methyl]-4-methyl-6-morpholin-4-yl-pyridine-3-carboxylic acid amide]
- Emax [1]: 117%
- pEC50 [2]: 6.93

SMILES: CCSc1nc(N2CCOCC2)cc(C)c1C(=O)NCCOC(C)(C)C [Example 83, N-(2-tert-Butoxy-ethyl)-2-ethylsulfanyl-4-methyl-6-morpholin-4-yl-pyridine-3-carboxylic acid amide]
- Emax [1]: 182%
- pEC50 [2]: 5.55

SMILES: CCSc1nc(N2CCOCC2)cc(C)c1C(=O)NCCCC(F)(F)F [Example 84, 2-Ethylsulfanyl-4-methyl-6-morpholin-4-yl-N-(4,4,4-trifluoro-butyl)-pyridine-3-carboxylic acid amide]
- Emax [1]: 203%
- pEC50 [2]: 6.45
